The term melting point denotes the temperature of the solid-liquid transition.

Each structure is given as a SMILES string.

Compound `O=C1C(c2ccccc2)=CC2CCCCCC12` (stereo unspecified) returned a melting point of 218 °C.
The same measure for `Cc1nn(C)c(OC(=O)CCl)c1C(=O)c1ccc(Cl)cc1Cl`: 120 to 122 °C; for `COc1ccc(COc2cc(N)c(Cl)cc2C(=O)CCCCN2CCCCC2)cc1OC`: 120 to 122 °C.
Consider `O=C(O)COc1cc(Cl)ccc1C(=O)NCc1c(F)cccc1F`, for which the melting point lay in the range of 188 to 190 °C.
Next, `Cc1cc(-c2ccc(-c3ccc(OCC4CO4)cc3)cc2)ccc1OCC1CO1` (stereo unspecified): 180 °C.
`O=c1oc(-c2ccccc2)ns1` gave a melting point of 64 to 67 °C.
Compound `Cc1cn(NCc2cc(C(C)(C)C)c(O)c(C(C)(C)C)c2)cn1` showed a melting point of 150 to 151 °C.
`CC1=CC(N(C)Cc2ccccc2)C(O)C(C)(C)CC1=O` (stereo unspecified) had a melting point of 78.5 to 80 °C.
Next, `O=C1Nc2ccccc2S(=O)c2ccccc21` (stereo unspecified): 308 to 310 °C; `COC(=O)Cn1c(=O)c2ccccc2n(CCCN2CCC(OC(c3ccccc3)c3ccccc3)CC2)c1=O`: 109 to 110 °C.
Turning to `COc1ccc(-n2nc(NC(=O)N(C)C)cc2-c2ccc(OCCNC(N)=O)cc2)cc1`, the melting point lay in the range of 193 to 196 °C.
Consider `NS(=O)(=O)c1cccc(C2OCCO2)c1`, for which the melting point was in the range of 145 to 147 °C.
Next, `CC(=O)N1CCN(c2nc(Cl)ccc2[N+](=O)[O-])CC1`: 137 to 138 °C.
Next, `CC(C)(CO)C(O)C(=O)NCc1cccnc1` (stereo unspecified): 120 to 122 °C.
Consider `CCCc1nc(C=NNC(=S)SC)c[nH]1`, for which the melting point was 95 to 104 °C.
`N#CCCn1c(=O)n(C2CCN(CCNC(=O)c3ccc(F)cc3)CC2)c2ccccc21` showed a melting point of 172 °C.
`O=C(Nc1cc2ncc(CN3CCCC3)cc2cc1N1CCCC1)c1ccc(-c2ccc(F)cc2)cc1`: the melting point is 182 to 184 °C.
The same measure for `CS(=O)(=O)OC1CN(c2c(F)cc3c(=O)c(C(=O)O)cn(C4CC4)c3c2F)C1`: 240 to 244 °C; for `CCSC1(SC)CCC2C3CCC4=CC(=O)C=CC4(C)C3(F)C(OC(C)=O)CC21C` (stereo unspecified): 140 to 142 °C; for `CO[C@@H](C)[C@](C)(OC)c1cc(F)cc(OCc2ccc3ccccc3c2)c1` (racemic): 58 to 59 °C.
In the case of `CCCCN(C(=O)NC)c1ccc(Cl)c(Cl)c1`, the melting point stood at 58 °C.
In the case of `COc1c(F)cc2c(=O)c(C(=O)O)cn(-c3cc(N)c(F)cc3F)c2c1C`, the melting point is > 280 °C.
`O=C(O)C(=O)c1ccc2c(c1)Cc1ccccc1-2` had a melting point of 135 to 137 °C.
In the case of `CC=C1CCC2C3CCC4CC(O)C(OCC)CC4(C)C3C(N)CC12C` (stereo unspecified), the melting point is 65 to 70 °C.
With `O=C(COc1ccc(-c2ccccc2Cl)cn1)Nc1cscc1C(=O)O`, the melting point lay in the range of 218 to 223 °C.
Next, `COc1ccc2c(c1)CC(=O)NC2c1ccc(Cl)cc1` (stereo unspecified): 200 to 201 °C; `CNC(=O)CC=C(CC(C)C)C(=O)OC(C)(C)C`: 35 to 36 °C.
The same measure for `CN1C(=O)C(NC(=O)c2ccccc2)C(C)(C)SC1=S` (stereo unspecified): 184 to 185 °C.
The same measure for `COC(=O)Nc1c(Br)cc(S(=O)(=O)N(C)C)cc1Br`: 177 to 178 °C.
`N#Cc1c(Cl)cccc1C=O` returned a melting point of 138 to 140 °C.
Next, `Cn1cnc2c1c(=O)n(CCCO)c(=O)n2C`: 139 to 140 °C; `CC(C)=CCCn1ccnc1[N+](=O)[O-]`: 49 to 51 °C; `O/N=C(\CCN1CCN(c2ccccn2)CC1)c1ccc(Cl)cc1`: 188 to 190 °C.
The same measure for `COc1ccc(-c2ccoc2)c2c1c(CCN(C)C)cn2C`: 80 to 81 °C; for `Cc1ccc(-c2nc(C(N)=O)cs2)cc1`: 100 to 102 °C; for `Cn1c2ccccc2c2c(=O)[nH]ccc21`: 242 °C.
In turn, `CCO/C(=C(/Oc1ccc(-c2ccc(Cl)cc2)cc1)n1ccnc1)C(C)(C)C` showed a melting point of 112 to 113 °C.
Compound `CC(C)(C)C1=C(c2cc3cc(O[Si](C)(C)C(C)(C)C)ccc3s2)OCC1(C)C` came in with a melting point of 88 to 89 °C.
The compound `N#CC(c1ccccc1)c1cn[nH]c1` (racemic) registered a melting point of 124 to 127 °C.
The compound `CC1=C(C#N)C(C)(c2ccccc2)C(C#N)=C(C)N1` came in with a melting point of 195 to 196 °C.
The same measure for `CCOc1ccc2c(c1)C(C)(c1ccccc1Cl)C(=O)N2S(=O)(=O)c1ccc(C(=O)NC(C)(C)CF)cc1` (stereo unspecified): 182 °C; for `O=c1c(-c2ccccc2)c(CNc2ncnc3[nH]cnc23)oc2ccccc12`: 155 to 158 °C.
The same measure for `COc1ccc2c(c1)CCC1C2CCC2(C)C(OC(C)(C)C)CCC12` (stereo unspecified): 91 to 92.5 °C; for `Cc1cc(NCc2ccc(Cl)cc2)nc(SCC#N)n1`: 99 to 101 °C; for `CCc1noc(-c2cn(-c3ccc(Cl)cn3)cn2)n1`: 224 to 226 °C.
Next, `S=C1CN=C(c2ccccc2Cl)c2ccccc2N1`: 228 to 229 °C; `CCOc1ccc2c(c1)C(N)(c1ccccc1Cl)C(=O)N2` (stereo unspecified): 173 to 175 °C.
With `CCC1(CC)CC(c2ccc(F)cc2)=C(c2ccc(S(N)(=O)=O)cc2)C1`, the melting point was 101 °C.
The same measure for `Cc1ccc2c(c1)C=Cc1cc(C)ccc1C2c1cn(-c2ccnc(N(C)CC(=O)Nc3nc(CC(=O)O)cs3)n2)c(=O)[nH]c1=O`: 210 °C; for `O=C(OCCN1CCOC1=O)c1ccccc1Nc1ccnc2cc(C(F)(F)F)ccc12`: 124 to 125 °C.
The same measure for `CCCCCCCSC[C@H](N[C@@H](C)C(=O)N1CCC[C@H]1C(=O)O)C(=O)O`: 75 to 83 °C; for `COCCC(=O)N[C@H]1CC[C@H](CCN2CCN(c3nc(C)cc4c3CCO4)CC2)CC1`: 178 °C.
Next, `CCC(=O)[C@@H](NC(=O)OCc1ccccc1)C(C)C`: 49 to 50 °C; `Cc1cc(C)nc(SSc2ccc([N+](=O)[O-])cc2C(Cl)(Cl)Cl)n1`: 151 °C; `Cc1cc(-c2ccccc2)n2nc(SCc3ccccc3)nc2n1`: 110 to 111 °C.
Turning to `O=C(NCCCc1ccccc1)Nc1ccccn1`, the melting point is 127 to 128 °C.
The same measure for `c1ccc(COC2CCN(Cc3cc4ccccc4[nH]3)CC2)cc1`: 103 to 105 °C.
`CCOC(=O)C=Cc1cc(=O)c(C(=O)O)cn1-c1ccc(O)cc1C` showed a melting point of 185 to 189 °C.
The same measure for `COc1cc(C(N)=O)ccc1-c1nc2cc3c(cc2[nH]1)NC(=O)C3(C)C`: 265 to 270 °C; for `Nc1c(F)c(N2CCC(c3ccncc3)C2)c(F)c2c1c(=O)c(C(=O)O)cn2C1CC1` (stereo unspecified): 236 to 238 °C; for `Cc1cn([C@H]2CC[C@H](CC(=O)O)C[C@@H]2NC(=O)OC(C)(C)C)c(=O)n(COCc2ccccc2)c1=O`: 89 to 91 °C.
On to `Cc1ccccc1Nc1nc(N(C)c2ccccc2)c2sccc2n1`, for which the melting point lay within 198 to 200 °C.
The same measure for `Oc1ccc(F)nc1I`: 96 to 98 °C; for `Oc1ccc(CCNc2ncnc3scnc23)c(F)c1`: 193 °C.
Next, `CC(=O)CCc1cccc(C(N)=O)c1`: 122 to 125 °C.
`COC(=O)c1ccc(O)c(C=O)c1` returned a melting point of 80 to 81 °C.

The values are drawn from a melting point compilation (Tetko et al.; mined from patent text by program, amines drawn as free bases though some values may be those of a salt).
